Activity calls are given as the source filed them. No cut-off for these calls is given here.
What was measured:
[1] = species on record: Homo sapiens; experiment: Angiogenic activity in HUVEC12 assessed as induction of cell proliferation at 10 uM after 24 hrs by MTT assay; assay type: functional
[2] = test system: Chorioallantoic membrane; experiment: Angiogenic activity in chick embryo chorioallantoic membrane at 10 uL/egg after 2 days; assay type: functional, tissue-based; settings: Gallus gallus

SMILES	Activity [1]	Activity [2]
O=c1cc(-c2ccccc2)oc2cc(OCCO[N+](=O)[O-])cc(O)c12	Active	Active
O=c1cc(-c2ccccc2)oc2cc(O)cc(O)c12	Active	
O=c1cc(-c2ccccc2)oc2cc(OCCCCCCO[N+](=O)[O-])cc(O)c12	Active	Active
O=c1cc(-c2ccccc2)oc2cc(OCCCCO[N+](=O)[O-])cc(O)c12	Active	Active

Reference: ChEMBL document CHEMBL1152705, “Synthesis and promotion angiogenesis effect of chrysin derivatives coupled to NO donors” (Bioorg Med Chem Lett, 2009)
